Experimental data reported in PubChem BioAssay (NCI).
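In this assay, cells in 96-well plates receive the compound at five concentrations for 48 hours. Endpoints are linearly interpolated between the surrounding concentrations. GI50: concentration for 50% inhibition of growth. TGI: concentration producing complete growth inhibition.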

Columns and labels:
Assay in all cases: NCI tumour cell line growth inhibition, 48 h
786-0 renal = tested on: 786-0 renal
A498 renal = tested on: A498 renal
A549 NSCLC = tested on: A549 NSCLC
ACHN renal = tested on: ACHN renal
BT-549 breast = tested on: BT-549 breast
CAKI-1 renal = tested on: CAKI-1 renal
CCRF-CEM leukemia = tested on: CCRF-CEM leukemia
COLO 205 colon = tested on: COLO 205 colon
DU-145 prostate = tested on: DU-145 prostate
EKVX NSCLC = tested on: EKVX NSCLC
HCC-2998 colon = tested on: HCC-2998 colon
HCT-116 colon = tested on: HCT-116 colon
HCT-15 colon = tested on: HCT-15 colon
HL-60(TB) leukemia = tested on: HL-60(TB) leukemia
HOP-62 NSCLC = tested on: HOP-62 NSCLC
HOP-92 NSCLC = tested on: HOP-92 NSCLC
HS 578T breast = tested on: HS 578T breast
HT29 colon = tested on: HT29 colon
IGROV1 ovarian = tested on: IGROV1 ovarian
K-562 leukemia = tested on: K-562 leukemia
KM12 colon = tested on: KM12 colon
LOX IMVI melanoma = tested on: LOX IMVI melanoma
M14 melanoma = tested on: M14 melanoma
MALME-3M melanoma = tested on: MALME-3M melanoma
MCF7 breast = tested on: MCF7 breast
MDA-MB-231 breast = tested on: MDA-MB-231 breast
MDA-MB-435 = tested on: MDA-MB-435
MDA-MB-468 breast = tested on: MDA-MB-468 breast
MOLT-4 leukemia = tested on: MOLT-4 leukemia
NCI-H226 lung = tested on: NCI-H226 lung
NCI-H23 lung = tested on: NCI-H23 lung
NCI-H460 lung = tested on: NCI-H460 lung
NCI-H522 lung = tested on: NCI-H522 lung
NCI/ADR-RES ovarian = tested on: NCI/ADR-RES ovarian
OVCAR-3 ovarian = tested on: OVCAR-3 ovarian
OVCAR-4 ovarian = tested on: OVCAR-4 ovarian
OVCAR-5 ovarian = tested on: OVCAR-5 ovarian
OVCAR-8 ovarian = tested on: OVCAR-8 ovarian
PC-3 prostate = tested on: PC-3 prostate
RPMI-8226 leukemia = tested on: RPMI-8226 leukemia
RXF 393 renal = tested on: RXF 393 renal
SF-268 CNS = tested on: SF-268 CNS
SF-295 CNS = tested on: SF-295 CNS
SF-539 CNS = tested on: SF-539 CNS
SK-MEL-2 melanoma = tested on: SK-MEL-2 melanoma
SK-MEL-28 melanoma = tested on: SK-MEL-28 melanoma
SK-MEL-5 melanoma = tested on: SK-MEL-5 melanoma
SK-OV-3 ovarian = tested on: SK-OV-3 ovarian
SN12C renal = tested on: SN12C renal
SNB-19 CNS = tested on: SNB-19 CNS
SNB-75 CNS = tested on: SNB-75 CNS
SR leukemia = tested on: SR leukemia
SW-620 colon = tested on: SW-620 colon
T-47D breast = tested on: T-47D breast
TK-10 renal = tested on: TK-10 renal
U251 CNS = tested on: U251 CNS
UACC-257 melanoma = tested on: UACC-257 melanoma
UACC-62 melanoma = tested on: UACC-62 melanoma
UO-31 renal = tested on: UO-31 renal

## CCN1CCN(c2ccc(NC(=O)Nc3ccc4c(c3F)CCN4c3ccnc(C(=O)NC)c3)cc2C(F)(F)F)CC1
786-0 renal
  GI50: 5.77 µM
  TGI: 13.7 µM
A498 renal
  GI50: 5.77 µM
  TGI: 10.9 µM
A549 NSCLC
  GI50: 6.75 µM
  TGI: 13.5 µM
ACHN renal
  GI50: 5.9 µM
  TGI: 10.9 µM
BT-549 breast
  GI50: 6.92 µM
  TGI: 13.4 µM
CAKI-1 renal
  GI50: 6.56 µM
  TGI: 12 µM
CCRF-CEM leukemia
  GI50: 6.25 µM
  TGI: 24.4 µM
COLO 205 colon
  GI50: 10.7 µM
  TGI: > 37.3 µM
DU-145 prostate
  GI50: 6.45 µM
  TGI: 11.9 µM
EKVX NSCLC
  GI50: 6.71 µM
  TGI: 12.6 µM
HCC-2998 colon
  GI50: 6.44 µM
  TGI: 12 µM
HCT-116 colon
  GI50: 6.98 µM
  TGI: 16.5 µM
HCT-15 colon
  GI50: 5.54 µM
  TGI: 12.1 µM
HL-60(TB) leukemia
  GI50: 6.65 µM
  TGI: 15.7 µM
HOP-62 NSCLC
  GI50: 5.34 µM
  TGI: 10.9 µM
HOP-92 NSCLC
  GI50: 5.87 µM
  TGI: 12.5 µM
HS 578T breast
  GI50: 4.9 µM
  TGI: 13.2 µM
HT29 colon
  GI50: 3.06 µM
  TGI: 9.53 µM
IGROV1 ovarian
  GI50: 6.66 µM
  TGI: 12.2 µM
K-562 leukemia
  GI50: 7.43 µM
  TGI: > 37.3 µM
KM12 colon
  GI50: 0.341 µM
  TGI: 6.62 µM
LOX IMVI melanoma
  GI50: 5.54 µM
  TGI: 10.7 µM
M14 melanoma
  GI50: 6.8 µM
  TGI: 14.5 µM
MALME-3M melanoma
  GI50: 5.49 µM
  TGI: 10.5 µM
MCF7 breast
  GI50: 5.93 µM
  TGI: 13.1 µM
MDA-MB-231 breast
  GI50: 6.26 µM
  TGI: 11.5 µM
MDA-MB-435
  GI50: 5.09 µM
  TGI: 10.4 µM
MDA-MB-468 breast
  GI50: 6.36 µM
  TGI: 12.7 µM
MOLT-4 leukemia
  GI50: 2.09 µM
  TGI: 16.3 µM
NCI-H226 lung
  GI50: 6.58 µM
  TGI: 14.7 µM
NCI-H23 lung
  GI50: 5.97 µM
  TGI: 12 µM
NCI-H460 lung
  GI50: 6.04 µM
  TGI: 12.3 µM
NCI-H522 lung
  GI50: 7.1 µM
  TGI: 13.8 µM
NCI/ADR-RES ovarian
  GI50: 6.87 µM
  TGI: 16 µM
OVCAR-3 ovarian
  GI50: 6.02 µM
  TGI: 11.6 µM
OVCAR-4 ovarian
  GI50: 6.3 µM
  TGI: 13.7 µM
OVCAR-5 ovarian
  GI50: 5.82 µM
  TGI: 10.8 µM
OVCAR-8 ovarian
  GI50: 7.08 µM
  TGI: 15.6 µM
PC-3 prostate
  GI50: 7.39 µM
  TGI: 18.9 µM
RPMI-8226 leukemia
  GI50: 7.73 µM
  TGI: 30.9 µM
RXF 393 renal
  GI50: 1.35 µM
  TGI: 6.03 µM
SF-268 CNS
  GI50: 6.13 µM
  TGI: 14 µM
SF-295 CNS
  GI50: 3.52 µM
  TGI: 8.23 µM
SF-539 CNS
  GI50: 2.35 µM
  TGI: 7.24 µM
SK-MEL-2 melanoma
  GI50: > 37.3 µM
  TGI: > 37.3 µM
SK-MEL-28 melanoma
  GI50: 5.65 µM
  TGI: 10.8 µM
SK-MEL-5 melanoma
  GI50: 6.1 µM
  TGI: 11.3 µM
SK-OV-3 ovarian
  GI50: 5.84 µM
  TGI: 11.6 µM
SN12C renal
  GI50: 5.88 µM
  TGI: 11.2 µM
SNB-19 CNS
  GI50: 5.95 µM
  TGI: 11.2 µM
SNB-75 CNS
  GI50: 0.585 µM
  TGI: 6.84 µM
SR leukemia
  GI50: 5.44 µM
  TGI: 18.7 µM
SW-620 colon
  GI50: 5.07 µM
  TGI: 11.1 µM
T-47D breast
  GI50: > 37.3 µM
  TGI: > 37.3 µM
TK-10 renal
  GI50: 7.52 µM
  TGI: 13.1 µM
U251 CNS
  GI50: 4.8 µM
  TGI: 9.97 µM
UACC-257 melanoma
  GI50: 6.27 µM
  TGI: 12 µM
UACC-62 melanoma
  GI50: 6.18 µM
  TGI: 11.3 µM
UO-31 renal
  GI50: 5.43 µM
  TGI: 10.3 µM

## O=C1Nc2cc(Cl)ccc2/C1=C/c1cccc(OCc2ccc(Br)cc2F)c1
786-0 renal
  GI50: 3.79 µM
  TGI: > 100 µM
A498 renal
  GI50: 7.92 µM
  TGI: 57.2 µM
A549 NSCLC
  GI50: 4.66 µM
  TGI: > 100 µM
ACHN renal
  GI50: 3.94 µM
  TGI: > 100 µM
CAKI-1 renal
  GI50: 2.54 µM
  TGI: 13.9 µM
CCRF-CEM leukemia
  GI50: 2.91 µM
  TGI: 10.9 µM
COLO 205 colon
  GI50: 3.42 µM
  TGI: > 100 µM
DU-145 prostate
  GI50: 5.97 µM
  TGI: > 100 µM
EKVX NSCLC
  GI50: 3.23 µM
  TGI: > 100 µM
HCC-2998 colon
  GI50: 3.71 µM
  TGI: > 100 µM
HCT-116 colon
  GI50: 3.1 µM
  TGI: > 100 µM
HCT-15 colon
  GI50: 2.67 µM
  TGI: 12.3 µM
HL-60(TB) leukemia
  GI50: 1.85 µM
  TGI: 4.53 µM
HOP-62 NSCLC
  GI50: 4.02 µM
  TGI: 34.2 µM
HOP-92 NSCLC
  GI50: 2.33 µM
  TGI: 12.4 µM
HS 578T breast
  GI50: 2.17 µM
  TGI: 5.82 µM
IGROV1 ovarian
  GI50: 2.71 µM
  TGI: 97.7 µM
K-562 leukemia
  GI50: 2.67 µM
  TGI: 8.56 µM
KM12 colon
  GI50: 3.65 µM
  TGI: 41 µM
LOX IMVI melanoma
  GI50: 2.49 µM
  TGI: 8.24 µM
M14 melanoma
  GI50: 2.17 µM
  TGI: 5.71 µM
MALME-3M melanoma
  GI50: 4.15 µM
  TGI: 20.9 µM
MCF7 breast
  GI50: 0.642 µM
  TGI: 27.8 µM
MDA-MB-231 breast
  GI50: 2.63 µM
  TGI: 12.5 µM
MDA-MB-435
  GI50: 1.82 µM
  TGI: 3.41 µM
MDA-MB-468 breast
  GI50: 2.43 µM
  TGI: 8.88 µM
MOLT-4 leukemia
  GI50: 2.92 µM
  TGI: 9.41 µM
NCI-H226 lung
  GI50: 3.09 µM
  TGI: > 100 µM
NCI-H23 lung
  GI50: 3.88 µM
  TGI: > 100 µM
OVCAR-3 ovarian
  GI50: 2.53 µM
  TGI: 7.82 µM
OVCAR-4 ovarian
  GI50: 3.55 µM
  TGI: 47.2 µM
OVCAR-5 ovarian
  GI50: 8.48 µM
  TGI: > 100 µM
OVCAR-8 ovarian
  GI50: 4.32 µM
  TGI: > 100 µM
PC-3 prostate
  GI50: 3.89 µM
  TGI: > 100 µM
RPMI-8226 leukemia
  GI50: 2.35 µM
  TGI: 12.6 µM
RXF 393 renal
  GI50: 4.47 µM
  TGI: 50.4 µM
SF-268 CNS
  GI50: 3.33 µM
  TGI: > 100 µM
SF-295 CNS
  GI50: 3.16 µM
  TGI: 14.9 µM
SF-539 CNS
  GI50: 1.99 µM
  TGI: 4.34 µM
SK-MEL-2 melanoma
  GI50: 2.16 µM
  TGI: 5.35 µM
SK-MEL-28 melanoma
  GI50: 4.47 µM
  TGI: 24.1 µM
SK-MEL-5 melanoma
  GI50: 3.03 µM
  TGI: 10.9 µM
SK-OV-3 ovarian
  GI50: 14.6 µM
  TGI: > 100 µM
SN12C renal
  GI50: 4.11 µM
  TGI: > 100 µM
SNB-19 CNS
  GI50: 3.9 µM
  TGI: > 100 µM
SNB-75 CNS
  GI50: 1.83 µM
  TGI: 5.11 µM
SR leukemia
  GI50: 2.15 µM
  TGI: 5.07 µM
SW-620 colon
  GI50: 2.89 µM
  TGI: > 100 µM
T-47D breast
  GI50: 3.67 µM
  TGI: > 100 µM
TK-10 renal
  GI50: 14.3 µM
  TGI: > 100 µM
U251 CNS
  GI50: 3.79 µM
  TGI: > 100 µM
UACC-257 melanoma
  GI50: 8.5 µM
  TGI: > 100 µM
UACC-62 melanoma
  GI50: 2.49 µM
  TGI: 8.8 µM
UO-31 renal
  GI50: 2.05 µM
  TGI: > 100 µM
